Data as given in patent US5470852A, “Tetrahydroprotoberberine quaternary ammonium compounds useful in for treating arrhythmia” (priority 1991, dated 1995).
“Also recorded” adds a separate entry of the source.

How the values were obtained:
rabbits = assay: Electrically-induced ventricular fibrillation threshold (VFT) in rabbits; assay type: in vivo, rabbit; details: for VFT Before: baseline
[1] = tested on: Langendorff's perfused rat hearts; assay: Ischemia/reperfusion-induced arrhythmias, I13 in perfusate, Langendorff's perfused rat hearts; assay type: cell-based
Source text: FIG. 2. Influence of I13 in perfusate on the time course of reperfusion-induced arrhythmias in Langendorff's perfused rat hearts

dogs = assay: Ouabain-induced arrhythmia in dogs; assay type: in vivo, dog; details: for Incidence of arrhythmia: I13 iv 3 mg/kg, lidocaine iv 12 mg/kg
Procedure: (iv, 12 mg/kg) on ouabain induced arrhythmia in dogs
(Ouabain administration for 30 min)

[2] = tested on: normal papillary muscles in rats; assay: Action potential in normal papillary muscles in rats; assay type: cell-based, rat; details: n=6, I13 concentration not given
Source text: (§1) Effect of I13 (μ mol/L) on estimates of action potential induced in
(§2) normal and pathological papillary muscles in rats.

[3] = tested on: Langendorff's perfused rat hearts; assay: Lasting antiarrhythmic action after po administration, hearts removed and mounted on Langendorff's apparatus; assay type: in vivo; design: ke: unit not given beside the values
Procedure: 1, 3 and 6 hours after the administration of 100 mg/kg of I13 by p.o. to rats, the hearts were removed and mounted onto Langendorff's apparatus. […] (see FIG. 4)
FIG. 4. Influence of po I13 and mexiletine on the time course of reperfusion-induced arrhythmias in Langendorff's perfused rat hearts

[4] = tested on: normal papillary muscles of guinea pig; assay: Action potential of normal papillary muscles of guinea pig; assay type: cell-based; details: for APA (action potential amplitude) / APD20 / APD50 / APD90 / ERP (effective refractory period) / RP (resting potential) / Vmax: n=7
Source text: Effect of I13 on estimates of action potential of normal papillary

[5] = tested on: pathological papillary muscles in rats (hypertrophy); assay: Action potential in hypertrophic papillary muscles in rats (abdominal aorta occlusion); assay type: cell-based, rat
Source text: as §1, §2

[6] = tested on: various experimental arrhythmic models; assay: Overall antiarrhythmic, anti-VF and anti-ischemic activity (summary); assay type: in vivo
[7] = hypertrophy, n=5, I13 concentration not given

COc1ccc2c(c1OC)C[N+]1(Cc3ccc(Cl)cc3)CCc3cc4c(cc3C1C2)OCO4 (stereo not drawn) [Compound I13, 7-(4-chlorobenzyl)-5,8,13,13a-tetrahydroberberine chloride]
VFT Before (rabbits; intra-duodenal 4.5 mg/kg group): 5.8 ± 0.3 volt
VFT Before (rabbits; intra-duodenal 15 mg/kg group): 5.2 ± 0.9 volt
VFT Before (rabbits; iv 1.5 mg/kg group): 5.2 ± 0.6 volt
potency in elevating VFT relative to lidocaine (rabbits; i.v.): ten times more potent than lidocaine
AUC (area under curve, VFT effect) (rabbits; id 4.5 mg/kg): 48.1
AUC (area under curve, VFT effect) (rabbits; id 15 mg/kg): 83.7
VFT After (rabbits; intra-duodenal 4.5 mg/kg): 8.9 ± 0.4 volt
ΔVFT (rabbits; intra-duodenal 4.5 mg/kg): 3.1 ± 0.4 volt
ΔVFT % (rabbits; intra-duodenal 4.5 mg/kg): 53.0 ± 7.6%
VFT After (rabbits; intra-duodenal 15 mg/kg): 9.9 ± 2.2 volt
ΔVFT (rabbits; intra-duodenal 15 mg/kg): 4.8 ± 1.5 volt
ΔVFT % (rabbits; intra-duodenal 15 mg/kg): 92.1 ± 19.5%
AUC (area under curve, VFT effect) (rabbits; iv 1.5 mg/kg): 11.1
VFT After (rabbits; iv 1.5 mg/kg): 8.1 ± 1.1 volt
ΔVFT (rabbits; iv 1.5 mg/kg): 2.8 ± 0.8 volt
ΔVFT % (rabbits; iv 1.5 mg/kg): 54.4 ± 16.9%
AUC (area under curve, VFT effect) (rabbits; iv 4.5 mg/kg): 14.4
VFT After (rabbits; iv 4.5 mg/kg): 8.8 ± 1.1 volt
ΔVFT (rabbits; iv 4.5 mg/kg): 3.6 ± 0.6 volt
ΔVFT % (rabbits; iv 4.5 mg/kg): 72.2 ± 9.7%
protection against VT and VF induced by ischemia and reperfusion ([1]; 3 μmol/L): effective protection against the VT and VF
ke ([1]; 3 μmol/L (FIG. 2)): 0.030 min⁻¹
ke ([1]; 10 μmol/L (FIG. 2)): 0.020 min⁻¹
Incidence of arrhythmia (dogs; 0 min (before administration)): 97 ± 5%
Incidence of arrhythmia (dogs; 5 min): 83 ± 22%
Incidence of arrhythmia (dogs; 10 min): 72 ± 31%
Incidence of arrhythmia (dogs; 15 min): 59 ± 36%
Incidence of arrhythmia (dogs; 20 min): 45 ± 43%
Incidence of arrhythmia (dogs; 25 min): 40 ± 38%
Incidence of arrhythmia (dogs; 30 min): 27 ± 34%
Incidence of arrhythmia (dogs; 35 min): 26 ± 34%
Incidence of arrhythmia (dogs; 40 min): 14 ± 33%
Incidence of arrhythmia (dogs; 45 min): 12 ± 31%
Incidence of arrhythmia (dogs; 50 min): 11 ± 28%
Incidence of arrhythmia (dogs; 60 min): 8 ± 20%
inhibition of ouabain-induced arrhythmias (dogs; dogs): markedly inhibited
antiarrhythmic effect compared with lidocaine (dogs; i.v. gtt. 0.1 mg/kg/min for 30 mins vs lidocaine 0.4 mg/kg/min): the same antiarrhythmic effect as lidocaine
anti-arrhythmic activity relative to lidocaine (dogs; ouabain, dogs): 4 times
reoccurrence of arrhythmia (dogs; within 4 hour period): lack of reoccurrence of arrhythmia within a 4 hour period
APA [2]: 108 ± 9 mv
APD20 [2]: 5 ± 1 ms
APD50 [2]: 15 ± 4 ms
APD90 [2]: 44 ± 9 ms
ERP [2]: 43 ± 8 ms
RP [2]: 83 ± 4 mv
Vmax [2]: 200 ± 50 v/s
ke ([3]; 30 mg/kg po at 1 hr before experiment (FIG. 4)): 0.144
ke ([3]; 100 mg/kg po at 1 hr before experiment (FIG. 4)): 0.556
ke ([3]; 100 mg/kg po at 3 hr before experiment (FIG. 4)): 0.056
ke ([3]; 100 mg/kg po at 6 hr before experiment (FIG. 4)): 0.037
antiarrhythmic effects after washing isolated hearts ([3]; 1, 3 and 6 hours after p.o. 100 mg/kg, 30 min washing): persisted even after 30 minutes of washing
influence on APA [4]: no influence
influence on RP [4]: no influence
influence on APD50 (printed ADP50) ([4]; 0.3 μmol/L): able to lengthen ADP50
APA (action potential amplitude) ([4]; 0.3 μmol/L): 125 ± 3 mv
APD20 ([4]; 0.3 μmol/L): 88 ± 13 ms
APD50 ([4]; 0.3 μmol/L): 176 ± 29 ms
APD90 ([4]; 0.3 μmol/L): 201 ± 30 ms
ERP (effective refractory period) ([4]; 0.3 μmol/L): 201 ± 28 ms
RP (resting potential) ([4]; 0.3 μmol/L): 91 ± 1 mv
Vmax ([4]; 0.3 μmol/L): 260 ± 60 v/s
APA (action potential amplitude) ([4]; 1 μmol/L): 123 ± 3 mv
APD20 ([4]; 1 μmol/L): 86 ± 10 ms
APD50 ([4]; 1 μmol/L): 181 ± 27 ms
APD90 ([4]; 1 μmol/L): 208 ± 29 ms
ERP (effective refractory period) ([4]; 1 μmol/L): 207 ± 27 ms
RP (resting potential) ([4]; 1 μmol/L): 90 ± 1 mv
Vmax ([4]; 1 μmol/L): 250 ± 70 v/s
APA (action potential amplitude) ([4]; 3 μmol/L): 123 ± 3 mv
APD20 ([4]; 3 μmol/L): 84 ± 8 ms
APD50 ([4]; 3 μmol/L): 182 ± 23 ms
APD90 ([4]; 3 μmol/L): 211 ± 26 ms
ERP (effective refractory period) ([4]; 3 μmol/L): 213 ± 18 ms
RP (resting potential) ([4]; 3 μmol/L): 89 ± 3 mv
Vmax ([4]; 3 μmol/L): 217 ± 60 v/s
APA (action potential amplitude) ([4]; 10 μmol/L): 122 ± 3 mv
APD20 ([4]; 10 μmol/L): 80 ± 5 ms
APD50 ([4]; 10 μmol/L): 161 ± 28 ms
APD90 ([4]; 10 μmol/L): 206 ± 26 ms
ERP (effective refractory period) ([4]; 10 μmol/L): 211 ± 23 ms
RP (resting potential) ([4]; 10 μmol/L): 89 ± 1 mv
Vmax ([4]; 10 μmol/L): 180 ± 60 v/s
APA (action potential amplitude) ([4]; 30 μmol/L): 116 ± 5 mv
APD20 ([4]; 30 μmol/L): 58 ± 11 ms
APD50 ([4]; 30 μmol/L): 128 ± 19 ms
APD90 ([4]; 30 μmol/L): 158 ± 22 ms
ERP (effective refractory period) ([4]; 30 μmol/L): 166 ± 24 ms
RP (resting potential) ([4]; 30 μmol/L): 87 ± 3 mv
Vmax ([4]; 30 μmol/L): 140 ± 50 v/s
influence on APD50 and APD90 (printed ADP50, ADP90) ([4]; 1 to 3 μmol/L): prolonged
inhibition at 3 µM ([4]; Cavia porcellus, 3 μmol/L, isolated papillary muscles of guinea pigs, read-out: inhibition of Vmax): 20%
antiarrhythmic class properties ([4]; electrophysiological studies): properties of Ia, Ib and III
two-phase effect on APD ([4]; low vs high concentrations): lengthened at low concentrations and shortened at high concentrations
influence on APD in hypertrophic myocardium [5]: could not be further exaggerated; also recorded: no action on hypertrophic myocardium
Vmax in left ventricular hypertrophy ([5]; abdominal aorta occlusion, rats): completely inhibited
APA [5, 7]: 104 ± 4 mv
APD20 [5, 7]: 8 ± 2 ms
APD50 [5, 7]: 20 ± 4 ms
APD90 [5, 7]: 45 ± 5 ms
ERP [5, 7]: 45 ± 9 ms
RP [5, 7]: 81 ± 3 mv
Vmax [5, 7]: 210 ± 40 v/s
inhibition of ventricular fibrillation and myocardial ischemia ([6]; in vivo): inhibits ventricular fibrillation and myocardial ischemia
protection against arrhythmia, VF and myocardial ischemic injury ([6]; in vivo): advanced protection against arrhythmia, ventricular fibrillation (VF) and myocardial ischemic injury
antiarrhythmic effects ([6]; various experimental arrhythmic models): marked antiarrhythmic effects
